# Tests used:
# ERK2 = biological target: T1, ERK2 (Homo sapiens, UniProt P28482); test: ERK2 HTRF (biochemical) assay; conditions: HTRF
# T1 construct: purchased Jubilant Biosys
# Outline: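 Compounds were tested as half-log dilutions from 0.0005 to 10 uM in Tris pH 7.5/MgCl2 buffer, with a substrate mix of 1 uM biotin-MBP peptide and 24 uM ATP and an enzyme mix of 25 nM ERK2. Reaction ran 60 min at room temperature. Phospho-MBP was detected by HTRF (Eu-anti-phospho-MBP/SA-APC, 665/620 nm), and IC50 was fitted with a variable-slope sigmoidal curve.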
# ERK1 = biological target: T2, ERK1 (Homo sapiens, UniProt P27361); test: ERK1 HTRF (biochemical) assay; conditions: HTRF
# T2 construct: purchased Jubilant Biosys
# T2 sequence (P27361 whole entry): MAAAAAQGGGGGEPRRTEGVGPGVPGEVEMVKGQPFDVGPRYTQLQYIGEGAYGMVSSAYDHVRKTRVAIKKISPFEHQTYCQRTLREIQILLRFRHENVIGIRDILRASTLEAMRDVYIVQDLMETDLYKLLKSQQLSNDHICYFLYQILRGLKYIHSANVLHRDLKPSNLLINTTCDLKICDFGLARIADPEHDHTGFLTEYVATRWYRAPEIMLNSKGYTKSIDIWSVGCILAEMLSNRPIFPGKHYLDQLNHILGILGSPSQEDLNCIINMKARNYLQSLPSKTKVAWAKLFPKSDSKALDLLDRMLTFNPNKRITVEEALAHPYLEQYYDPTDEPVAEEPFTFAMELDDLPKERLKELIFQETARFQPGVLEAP
# Procedure: ERK1 and ERK2 HTRF (Biochemical) Assays
# These assays employed a homogeneous time resolved fluorescence (HTRF) technique. […] The plate was incubated at room temperature for 60 min with shaking. […] The IC50 values (half maximal inhibitory concentration values) were subsequently determined using a sigmoidal dose-response curve (variable slope) in GraphPad Prism® 5 software.
# T1 sequence (P28482 whole entry): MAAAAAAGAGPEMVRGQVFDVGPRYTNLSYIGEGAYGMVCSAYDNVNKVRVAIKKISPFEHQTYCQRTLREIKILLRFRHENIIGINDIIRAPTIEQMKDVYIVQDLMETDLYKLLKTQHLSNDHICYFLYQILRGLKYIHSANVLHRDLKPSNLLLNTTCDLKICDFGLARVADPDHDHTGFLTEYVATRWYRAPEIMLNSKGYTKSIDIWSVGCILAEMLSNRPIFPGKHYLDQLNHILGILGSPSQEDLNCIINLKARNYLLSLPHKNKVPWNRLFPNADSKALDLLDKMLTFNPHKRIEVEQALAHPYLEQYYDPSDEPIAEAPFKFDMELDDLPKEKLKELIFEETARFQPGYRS
Structure (SMILES),IC50 (ERK2),IC50 (ERK1)
"CC[C@H](CO)Nc1cc(-n2cnc(C(=O)NC(CO)c3cccc(Cl)c3)c2)c(Cl)cn1 (stereo partly drawn) [Compound 168, 1-(5-chloro-2-(((R)-1-hydroxybutan-2-yl)amino)pyridin-4-yl)-N-(1-(3-chlorophenyl)-2-hydroxyethyl)-1H-imidazole-4-carboxamide]",50 to 100 nM,< 50 nM
"Cc1cnc(Nc2ccc(F)cc2Cl)nc1-n1ccc(C(=O)NC(CN)c2cccc(Cl)c2)c1 (stereo not drawn) [Compound 169, N-(2-amino-1-(3-chlorophenyl)ethyl)-1-(2-((2-chloro-4-fluorophenyl)amino)-5-methyl-pyrimidin-4-yl)-1H-pyrrole-3-carboxamide]",50 to 100 nM,50 to 100 nM
"O=C(N[C@H](CO)c1cccc(Cl)c1)c1cn(-c2ccnc(NC3CCOC3)c2)cn1 (stereo partly drawn) [Compound 170, N-((S)-1-(3-chlorophenyl)-2-hydroxyethyl)-1-(2-((tetrahydrofuran-3-yl)amino)pyridin-4-yl)-1H-imidazole-4-carboxamide]",≤ 50 nM,< 50 nM
"Cc1cnc(Nc2cccnc2)cc1-n1ccc(C(=O)NC(CO)c2ccc(F)c(Cl)c2)c1 (stereo not drawn) [Compound 171, N-(1-(3-chloro-4-fluorophenyl)-2-hydroxyethyl)-1-(5-methyl-2-(pyridin-3-ylamino)pyridin-4-yl)-1H-pyrrole-3-carboxamide]",≤ 50 nM,< 50 nM
"Cc1cnc(Nc2ccc3c(c2)OCO3)nc1-n1ccc(C(=O)NC(CO)c2ccc(F)cc2)c1 (stereo not drawn) [Compound 172, 1-(2-(benzo[d][1,3]dioxol-5-ylamino)-5-methylpyrimidin-4-yl)-N-(1-(4-fluorophenyl)-2-hydroxyethyl)-1H-pyrrole-3-carboxamide]",≤ 50 nM,< 50 nM
"Cc1cnc(Nc2ccc3c(c2)CCCO3)nc1-n1ccc(C(=O)NC(CO)c2ccccc2)c1 (stereo not drawn) [Compound 173, 1-(2-(chroman-6-ylamino)-5-methyl-pyrimidin-4-yl)-N-(2-hydroxy-1-phenylethyl)-1H-pyrrole-3-carboxamide]",≤ 50 nM,< 50 nM
"Cc1cnc(NC2CCNC2)nc1-n1ccc(C(=O)N[C@H](CO)c2cccc(Cl)c2)c1 (stereo partly drawn) [Compound 174, N-((S)-1-(3-chlorophenyl)-2-hydroxyethyl)-1-(5-methyl-2-(pyrrolidin-3-ylamino)pyrimidin-4-yl)-1H-pyrrole-3-carboxamide]",≤ 50 nM,< 50 nM
"Cc1cnc(Nc2ccc(F)c(N3CCOCC3)c2)nc1-n1ccc(C(=O)NC(CO)c2cccc(Cl)c2)c1 (stereo not drawn) [Compound 175, N-(1-(3-chloro-phenyl)-2-hydroxy-ethyl)-1-(2-((4-fluoro-3-morpholinophenyl)amino)-5-methyl-pyrimidin-4-yl)-1H-pyrrole-3-carboxamide]",≤ 50 nM,< 50 nM
"O=C(NC(CO)c1cccc(Cl)c1)c1ccn(-c2ccnc(Nc3ccc4c(c3)OC(F)(F)O4)n2)c1 (stereo not drawn) [Compound 176, N-(1-(3-chloro-phenyl)-2-hydroxyethyl)-1-(2-((2,2-difluoro-benzo[d][1,3]dioxol-5-yl)amino)-pyrimidin-4-yl)-1H-pyrrole-3-carboxamide]",≤ 50 nM,< 50 nM
"Cc1cnc(Nc2ccc(F)cc2)nc1-n1cnc(C(=O)NC(CN)c2cccc(Cl)c2)c1 (stereo not drawn) [Compound 177, N-(2-amino-1-(3-chlorophenyl)ethyl)-1-(2-((4-fluoro-phenyl)amino)-5-methylpyrimidin-4-yl)-1H-imidazole-4-carboxamide]",≤ 50 nM,< 50 nM
"Cc1cnc(Nc2ccc(N3CCC(N4CCNCC4)CC3)cc2)nc1-n1ccc(C(=O)NC(CO)c2ccccc2)c1 (stereo not drawn) [Compound 178, N-(2-hydroxy-1-phenylethyl)-1-(5-methyl-2-((4-(4-(piperazin-1-yl)-piperidin-1-yl)-phenyl)amino)pyrimidin-4-yl)-1H-pyrrole-3-carboxamide]",100 to 500 nM,100 to 500 nM
"Cc1cnc(Nc2ccc(F)c(C(=O)N3CCN(C)CC3)c2)nc1-n1ccc(C(=O)NC(CO)c2cccc(Cl)c2)c1 (stereo not drawn) [Compound 179, N-(1-(3-chlorophenyl)-2-hydroxyethyl)-1-(2-((4-fluoro-3-(4-methylpiperazine-1-carbonyl)phenyl)amino)-5-methyl-pyrimidin-4-yl)-1H-pyrrole-3-carboxamide]",≤ 50 nM,< 50 nM
"Cc1cnc(Nc2ccccc2)cc1-n1cnc(C(=O)NC(CO)c2cccc(Cl)c2)c1 (stereo not drawn) [Compound 180, N-(1-(3-chloro-phenyl)-2-hydroxyethyl)-1-(5-methyl-2-(phenyl-amino)pyridin-4-yl)-1H-imidazole-4-carboxamide]",≤ 50 nM,< 50 nM
"COc1cc(C(=O)N2CCOCC2)c(F)cc1Nc1ncc(C)c(-n2ccc(C(=O)NC(CO)c3cccc(Cl)c3)c2)n1 (stereo not drawn) [Compound 181, N-(1-(3-chlorophenyl)-2-hydroxyethyl)-1-(2-((5-fluoro-2-methoxy-4-(morpholine-4-carbonyl)phenyl)amino)-5-methyl-pyrimidin-4-yl)-1H-pyrrole-3-carboxamide]",≤ 50 nM,< 50 nM
"Cc1cc(Nc2ncc(C)c(-n3ccc(C(=O)NC(CO)c4cccc(Cl)c4)c3)n2)ccc1C1CCNCC1 (stereo not drawn) [Compound 182, N-(1-(3-chloro-phenyl)-2-hydroxyethyl)-1-(5-methyl-2-((3-methyl-4-(piperidin-4-yl)phenyl)-amino)pyrimidin-4-yl)-1H-pyrrole-3-carboxamide]",≤ 50 nM,< 50 nM
"Cc1cn(-c2ccnc(Nc3ccccc3)c2)cc1C(=O)N[C@H](CO)c1cccc(Cl)c1 [Compound 183, (S)-N-(1-(3-chlorophenyl)-2-hydroxyethyl)-4-methyl-1-(2-(phenylamino)pyridin-4-yl)-1H-pyrrole-3-carboxamide]",≤ 50 nM,50 to 100 nM
"COc1ccc(Nc2ncc(C)c(-n3ccc(C(=O)NC(CO)c4cccc(Cl)c4)c3)n2)cc1OCCCN(C)C (stereo not drawn) [Compound 184, N-(1-(3-chloro-phenyl)-2-hydroxy-ethyl)-1-(2-((3-(3-(dimethylamino)propoxy)-4-methoxy-phenyl)amino)-5-methylpyrimidin-4-yl)-1H-pyrrole-3-carboxamide]",≤ 50 nM,< 50 nM
Cc1cnc(Nc2ccc3c(c2)OCC3)nc1-n1ccc(C(=O)NC(CO)c2ccccc2)c1 (stereo not drawn) [Compound 185],≤ 50 nM,< 50 nM
"Cc1cnc(Nc2ccc3c(c2)OCCC3)nc1-n1ccc(C(=O)NC(CO)c2ccccc2)c1 (stereo not drawn) [Compound 186, 1-(2-(chroman-7-ylamino)-5-methyl-pyrimidin-4-yl)-N-(2-hydroxy-1-phenylethyl)-1H-pyrrole-3-carboxamide]",≤ 50 nM,< 50 nM
"Cc1cccc(C(CO)NC(=O)c2ccn(-c3nc(N[C@H]4CCOC4)ncc3C)c2)c1 (stereo partly drawn) [Compound 187, N-(2-hydroxy-1-(m-tolyl)ethyl)-1-(5-methyl-2-(((S)-tetrahydrofuran-3-yl)amino)pyrimidin-4-yl)-1H-pyrrole-3-carboxamide]",≤ 50 nM,< 50 nM
"O=C(N[C@H](CO)c1cccc(Cl)c1)c1ccn(-c2ccnc(NC3CCOC3)c2)c1 (stereo partly drawn) [Compound 188, N-((S)-1-(3-chlorophenyl)-2-hydroxyethyl)-1-(2-((tetrahydrofuran-3-yl)amino)pyridin-4-yl)-1H-pyrrole-3-carboxamide]",100 to 500 nM,100 to 500 nM

# Source: US9896445B2, “Heterocyclic inhibitors of ERK1 and ERK2 and their use in the treatment of cancer” (Asana Biosciences, LLC, priority 2015, dated 2018)
